Reference: PubChem BioAssay AID330 (DTP/NCI, 2004)
“And” between values parts separate entries of the source, which are not always exact repeats. Equal values may be shown once. Toxic doses and inconclusive results are not listed.

Test system: P388 leukemia ip, CD2F1 mice, survival T/C
Assay: NCI In Vivo Anticancer Drug Screen. Data for tumor model P388 Leukemia (intraperitoneal) in CD2F1 (CDF1) mice
Details: endpoint: median survival time, higher = longer survival
Outline: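 Mice carrying the transplanted tumor received test compound or vehicle. Survival was recorded in each group, and the value is the treated-group measurement divided by that of the vehicle-treated control group.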

[1] = dose: 60.0 mg/kg/injection, schedule: Q01DX005 (ip), vehicle: Klucel (hydroxypropylcellulose) (HPC)
[2] = dose: 50.0 mg/kg/injection, schedule: Q01DX005 (ip), vehicle: saline with Tween-80
[3] = dose: 100.0 mg/kg/injection, schedule: Q01DX005 (ip), vehicle: saline with Tween-80
[4] = dose: 50.0 mg/kg/injection, schedule: Q01DX009 (ip), vehicle: suspension in saline
[5] = dose: 100.0 mg/kg/injection, schedule: Q01DX009 (ip), vehicle: suspension in saline
[6] = dose: 50.0 mg/kg/injection, schedule: Q01DX009 (ip), vehicle: Klucel (hydroxypropylcellulose) (HPC)
[7] = dose: 100.0 mg/kg/injection, schedule: Q01DX009 (ip), vehicle: Klucel (hydroxypropylcellulose) (HPC)
[8] = dose: 50.0 mg/kg/injection, schedule: Q01DX005 (ip), vehicle: saline
[9] = dose: 100.0 mg/kg/injection, schedule: Q01DX005 (ip), vehicle: saline
[10] = dose: 200.0 mg/kg/injection, schedule: Q01DX005 (ip), vehicle: saline
[11] = dose: 12.5 mg/kg/injection, schedule: Q01DX009 (ip), vehicle: saline with Tween-80
[12] = dose: 25.0 mg/kg/injection, schedule: Q01DX009 (ip), vehicle: saline with Tween-80
[13] = dose: 50.0 mg/kg/injection, schedule: Q01DX009 (ip), vehicle: saline with Tween-80
[14] = dose: 100.0 mg/kg/injection, schedule: Q01DX009 (ip), vehicle: saline with Tween-80
[15] = dose: 60.0 mg/kg/injection, schedule: Q01DX005 (ip), vehicle: saline with Tween-80
[16] = dose: 120.0 mg/kg/injection, schedule: Q01DX005 (ip), vehicle: saline with Tween-80
[17] = dose: 240.0 mg/kg/injection, schedule: Q01DX005 (ip), vehicle: saline with Tween-80
[18] = dose: 200.0 mg/kg/injection, schedule: Q01DX009 (ip), vehicle: Klucel (hydroxypropylcellulose) (HPC)
[19] = dose: 50.0 mg/kg/injection, schedule: Q01DX005 (ip), vehicle: Klucel (hydroxypropylcellulose) (HPC)
[20] = dose: 100.0 mg/kg/injection, schedule: Q01DX005 (ip), vehicle: Klucel (hydroxypropylcellulose) (HPC)
[21] = dose: 120.0 mg/kg/injection, schedule: Q01DX005 (ip), vehicle: Klucel (hydroxypropylcellulose) (HPC)
[22] = dose: 240.0 mg/kg/injection, schedule: Q01DX005 (ip), vehicle: Klucel (hydroxypropylcellulose) (HPC)
[23] = dose: 50.0 mg/kg/injection, schedule: Q01DX009 (ip), vehicle: saline
[24] = dose: 100.0 mg/kg/injection, schedule: Q01DX009 (ip), vehicle: saline
[25] = dose: 200.0 mg/kg/injection, schedule: Q01DX009 (ip), vehicle: saline
[26] = dose: 200.0 mg/kg/injection, schedule: Q01DX009 (ip), vehicle: saline with Tween-80
[27] = dose: 200.0 mg/kg/injection, schedule: Q01DX005 (ip), vehicle: saline with Tween-80

CC1=C(C)C(=O)C2=C(OCCO2)C1=O
T/C (dose: 15.0 mg/kg/injection, schedule: Q01DX005 (ip), vehicle: Klucel (hydroxypropylcellulose) (HPC)): 100 % of control
T/C (dose: 30.0 mg/kg/injection, schedule: Q01DX005 (ip), vehicle: Klucel (hydroxypropylcellulose) (HPC)): 106 % of control
T/C [1]: 104 % of control

CCC1=CC2CN3CCc4c([nH]c5ccccc45)C(C(=O)OC)(C2)C13 (stereo unspecified)
T/C [2]: 105 % of control
T/C [3]: 108 % of control

O=[N+]([O-])c1ccc(/C(=C/c2ccc(F)cc2)S(=O)(=O)c2ccccc2)o1
T/C [4]: 97 % of control
T/C [5]: 88 % of control

CC1CC=CC(=O)CC1 (stereo unspecified)
T/C [6]: 112 % of control
T/C [7]: 117 % of control

O=C1C=C(N2CCN(CCO)CC2)C(=O)c2c(N3CCN(CCO)CC3)cc(N3CCN(CCO)CC3)nc21
T/C [8]: 97 % of control
T/C [9]: 93 % of control
T/C [10]: 93 % of control

COc1cc(OC)c(NC(=O)ON2C(=O)c3ccccc3C2=O)cc1Cl
T/C [11]: 119 % of control
T/C [12]: 122 % of control
T/C [13]: 122 % of control
T/C [14]: 110 % of control

CCN(CC)CCNc1ccc(COC(=O)NC)c2oc3ccccc3c(=O)c12
T/C (dose: 1.5 mg/kg/injection, schedule: Q01DX005 (ip), vehicle: distilled water + Tween-80): 113 % of control
T/C (dose: 3.0 mg/kg/injection, schedule: Q01DX005 (ip), vehicle: distilled water + Tween-80): 113 % of control
T/C (dose: 6.0 mg/kg/injection, schedule: Q01DX005 (ip), vehicle: distilled water + Tween-80): 113 % of control
T/C (dose: 12.5 mg/kg/injection, schedule: Q01DX005 (ip), vehicle: distilled water + Tween-80): 93 % of control

CSC(=N\N=C\c1ccc(N(C)C)cc1)/N=C/N(C)C
T/C [15]: 100 % of control
T/C [16]: 103 % of control
T/C [17]: 103 % of control

Cc1ccc(N=C=C(c2ccccc2)c2ccccc2)cc1
T/C [6]: 123 % of control
T/C [7]: 119 % of control

O=c1[nH]c2ccccc2n1C1CCN(CCOc2ccccc2)CC1
T/C [6]: 95 % of control
T/C [7]: 102 % of control
T/C [18]: 95 % of control

O=C(NCC1CC1)c1ccccc1NC(=O)c1cc2ccccc2oc1=O
T/C [15]: 100 % of control
T/C [16]: 100 % of control
T/C [17]: 108 % of control

Nc1ccc(/C=C/c2ccc3ncccc3c2)cc1
T/C [11]: 100 % of control
T/C [12]: 109 % of control
T/C [13]: 97 % of control

O=[N+]([O-])c1cc2c(ccc3ccccc32)o1
T/C [19]: 102 % of control
T/C [20]: 103 % of control
T/C (dose: 200.0 mg/kg/injection, schedule: Q01DX005 (ip), vehicle: Klucel (hydroxypropylcellulose) (HPC)): 117 % of control

Nc1nncs1
T/C (dose: 6.25 mg/kg/injection, schedule: Q01DX009 (ip), vehicle: water): 107 % of control and 108 % of control and 94 % of control
T/C (dose: 7.5 mg/kg/injection, schedule: Q01DX009 (ip), vehicle: water): 112 % of control
T/C (dose: 15.0 mg/kg/injection, schedule: Q01DX009 (ip), vehicle: water): 101 % of control
T/C (dose: 20.0 mg/kg/injection, schedule: Q01DX005 (ip), vehicle: saline): 103 % of control and 109 % of control
T/C (dose: 30.0 mg/kg/injection, schedule: Q01DX009 (ip), vehicle: water): 117 % of control
T/C (dose: 40.0 mg/kg/injection, schedule: Q01DX005 (ip), vehicle: saline): 122 % of control
T/C (dose: 80.0 mg/kg/injection, schedule: Q01DX005 (ip), vehicle: saline): 172 % of control and 188 % of control
T/C (dose: 120.0 mg/kg/injection, schedule: Q01DX009 (ip), vehicle: water): 104 % of control
T/C (dose: 160.0 mg/kg/injection, schedule: Q01DX005 (ip), vehicle: saline): 69 % of control

O=c1[nH]c2ccccc2c(N=Cc2ccccc2)c1-c1ccccc1
T/C [1]: 96 % of control
T/C [21]: 93 % of control
T/C [22]: 98 % of control

CC(C)OC(=O)NC1CCC2CCCCC2C1 (stereo unspecified)
T/C [23]: 102 % of control
T/C [24]: 102 % of control
T/C [25]: 100 % of control

Oc1c(Cl)cc(Cl)cc1C=NCCSc1ccc(Cl)cc1
T/C [19]: 99 % of control and 108 % of control and 111 % of control
T/C (dose: 100.0 mg/kg/injection, schedule: Q01DX005 (ip), vehicle: DMSO): 115 % of control
T/C [20]: 105 % of control and 115 % of control and 93 % of control
T/C (dose: 200.0 mg/kg/injection, schedule: Q01DX005 (ip), vehicle: DMSO): 117 % of control
T/C (dose: 400.0 mg/kg/injection, schedule: Q01DX005 (ip), vehicle: DMSO): 118 % of control
T/C (dose: 400.0 mg/kg/injection, schedule: Q01DX005 (ip), vehicle: Klucel (hydroxypropylcellulose) (HPC)): 101 % of control and 120 % of control
T/C (dose: 600.0 mg/kg/injection, schedule: Q01DX005 (ip), vehicle: DMSO): 108 % of control

O=C(N=Cc1ccco1)C(=O)Nc1ccc(Cl)c([N+](=O)[O-])c1
T/C [13]: 100 % of control
T/C [14]: 91 % of control
T/C [26]: 96 % of control

NS(=O)(=O)c1ccc(N=Cc2ccccc2)cc1
T/C [14]: 103 % of control
T/C [26]: 100 % of control
T/C (dose: 400.0 mg/kg/injection, schedule: Q01DX009 (ip), vehicle: saline with Tween-80): 98 % of control

O=C1OC2(O)c3ccccc3C(=O)N2N2CCCC12 (stereo unspecified)
T/C [1]: 109 % of control
T/C [21]: 98 % of control
T/C [22]: 98 % of control

c1ccc(CN=C(Nc2ccc(C3=NCCN3)cc2)c2cccc(C(=NCc3ccccc3)Nc3ccc(C4=NCCN4)cc3)c2)cc1
T/C [2]: 104 % of control
T/C [3]: 104 % of control
T/C [27]: 104 % of control

Cn1c2cc(Cl)c(Cl)cc2nc2cc3c(cc21)c(Cl)c(=O)c1ccccc13
T/C [13]: 104 % of control
T/C [14]: 100 % of control
T/C [26]: 98 % of control

Cc1ccc(NC(=S)SCc2ccc(Cl)c(Cl)c2)cc1Cl
T/C [4]: 112 % of control
T/C [5]: 115 % of control
T/C (dose: 200.0 mg/kg/injection, schedule: Q01DX009 (ip), vehicle: suspension in saline): 116 % of control

COc1ccc(C2C(S(=O)(=O)c3ccccc3)CON2c2ccccc2)cc1 (stereo unspecified)
T/C [2]: 97 % of control
T/C [3]: 96 % of control
T/C [27]: 89 % of control

CC1(C)OC2(CC1C1(C)C=CC(=O)O1)CC1C(O)(CCC34CC13C(=O)OC4c1ccoc1)O2 (stereo unspecified)
T/C [23]: 100 % of control
T/C [24]: 95 % of control
T/C [25]: 104 % of control

Nc1nc2ccc([N+](=O)[O-])cc2[nH]1
T/C [6]: 99 % of control
T/C [7]: 101 % of control
T/C [18]: 90 % of control

Cc1cn(C2CC(O)C(CI)O2)c(=O)[nH]c1=O (stereo unspecified)
T/C [2]: 98 % of control
T/C [3]: 104 % of control
T/C [27]: 98 % of control

CN1CCC2(CC1)OCCCO2
T/C (dose: 25.0 mg/kg/injection, schedule: Q01DX005 (ip), vehicle: saline with Tween-80): 102 % of control
T/C [2]: 94 % of control
T/C [8]: 99 % of control
T/C (dose: 75.0 mg/kg/injection, schedule: Q01DX001 (ip), vehicle: saline with Tween-80): 105 % of control
T/C [3]: 100 % of control and 88 % of control
T/C [9]: 96 % of control
T/C (dose: 125.0 mg/kg/injection, schedule: Q01DX001 (ip), vehicle: saline with Tween-80): 101 % of control
T/C [10]: 102 % of control
T/C (dose: 250.0 mg/kg/injection, schedule: Q01DX001 (ip), vehicle: saline with Tween-80): 93 % of control

N=C(N)c1ccc2nc(/C=C\c3nc4ccc(C(=N)N)cc4[nH]3)[nH]c2c1
T/C (dose: 100.0 mg/kg/injection, schedule: Q04DX002 (ip), vehicle: saline): 110 % of control
T/C (dose: 200.0 mg/kg/injection, schedule: Q04DX002 (ip), vehicle: saline): 117 % of control

CCOC(=O)C(C)c1ccccc1-c1cccc(OC)c1 (stereo unspecified)
T/C [2]: 94 % of control
T/C [3]: 97 % of control
T/C [27]: 103 % of control

Nn1cnc2c(ncn2C2OC(CO)C(O)C2O)c1=O (stereo unspecified)
T/C [1]: 98 % of control
T/C [21]: 99 % of control
T/C [22]: 97 % of control
